Here are results for eight molecules from patent US7232804B2, “Use of KPV tripeptide for dermatological disorders” (Zengen, Inc., priority 2001, dated 2007).

Where a SMILES comes first, the peptide text is derived from it.

In one data set the test system is fever. Particulars: relative to parent peptide or α-MSH(11-13); cited from earlier work.
In the next data set the test system is psoriatic lesions. In words: Topical treatment of psoriatic lesions in a subject, KPV in mineral oil vs contralateral Hydrocortisone. Particulars: for Adverse reactions or side effects: treatment continued for eleven days. The source says: In a subject with a diagnosed and confirmed greater than ten year history of dermatologically symptomatic psoriasis, KPV was used to treat inflammation, scaling, dryness, pain, erythema, and pruritis. The subject had psoriatic lesions located bilaterally on the volar (palm side) surface of the forearms. The lesions varied in time of existence for greater than ten years with variagated presentation. The subject presented no opportunistic infection of the integument secondary to the psoriatic lesions.
KPV in a crystalline form was prepared as disclosed in U.S. Pat. No. 5,028,592. Mineral oil was chosen as a carrier for the KPV preparation. One milligram of KPV was administered topically on the affected areas of the integument at a frequency of twice daily. For comparison purposes, a standard dosage amount of Hydrocortisone was placed on the contralateral area of the body of the subject that also manifested the dermatological sequelae of psoriasis. Topical administration was accomplished with standard cotton tipped applicators.
This treatment was continued for eleven days.

Another data set has as its system inflammation. Particulars: relative to L-form tripeptide α-MSH (11-13); cited from earlier work.

Take [Nle^4,D-Phe^7]-α-MSH: the Antipyretic potency entry in the data set on fever is “approximately ten times more potent than the parent peptide”. As for `CC(C)[C@H](NC(=O)[C@@H]1CCCN1C(=O)[C@@H](N)CCCCN)C(=O)O` [KPV, lysine-proline-valine] (H-Lys-Pro-Val-OH), the “Adverse reactions or side effects” value in the data set with psoriatic lesions was “No adverse reactions or side effects”. For “9-13 sequence: α-MSH 9-13 fragment (WGPKV; Designed polypeptide with anti-inflammatory, anti-bacterial, anti-fungal and antipyretic properties.)”, in the data set with fever, the Antipyretic potency result is listed as “almost devoid of activity”. With “α-MSH sequence (4-10): the "core" α-MSH sequence (4-10)”, the Antipyretic potency result with fever was “little antipyretic and anti-inflammatory activity”. The “Anti-inflammatory activity / general potency” value in the data set on inflammation was “little antipyretic and anti-inflammatory activity”. For the molecule “10-13 sequence: α-MSH(11-13) with glycine added to form the 10-13 sequence (GKPV; Designed polypeptide with anti-inflammatory, anti-bacterial, anti-fungal and antipyretic properties.)”, in the data set with fever, the Antipyretic potency result is “slightly decreased potency”. On to “8-13 sequence: α-MSH 8-13 fragment (RWGKPV; Designed polypeptide with anti-inflammatory, anti-bacterial, anti-fungal and antipyretic properties.)”, for which the Antipyretic potency result in the data set with fever is on record as “greater than that of the 11-13 sequence”. With `C[C@]12CCC(=O)C=C1CC[C@@H]1[C@@H]2[C@@H](O)C[C@@]2(C)[C@H]1CC[C@]2(O)C(=O)CO` [Hydrocortisone], the “Improvement of symptoms associated with the psoriatic lesions” value in the data set with psoriatic lesions (KPV one milligram twice daily in mineral oil, Hydrocortisone standard dosage on contralateral side) is “showed improvement”. Also, the “Period of symptom control / relief from symptoms” value in the data set with psoriatic lesions (psoriatic lesions on forearms) is reported as “three hours”. Further, in the data set with psoriatic lesions, the “Adverse reactions or side effects” value is “telangictasia and atrophy of skin”. Regarding Ac-[D-K11]-α-MSH 11-13-NH2, the “Anti-inflammatory activity / general potency” value in the data set on inflammation is “same general potency as the L-form”.
